Measurements as given in ChEMBL document CHEMBL1201862, “PubChem BioAssay data set” (2004).
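Five compound concentrations were applied to cells in 96-well plates for 48 hours; endpoints were derived by simple linear interpolation of the resulting dose-response curve. The concentration for 50% growth inhibition is given as GI50.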 Calls of active or inactive are those of the source. No stated cut-off is given here; in the data, active = GI50 up to about 1.1 µM and inactive = higher.

Tests used:
Experiment in all cases: DTP human tumour cell line panel, 48 h
HCC 2998 = tested on: HCC 2998
A498 = tested on: A498
CCRF-CEM = tested on: CCRF-CEM
NCI-H23 = tested on: NCI-H23
NCI-H460 = tested on: NCI-H460
SNB-75 = tested on: SNB-75
RPMI-8226 = tested on: RPMI-8226
OVCAR-5 = tested on: OVCAR-5
M14 = tested on: M14
RXF 393 = tested on: RXF 393
SNB-78 = tested on: SNB-78
SK-MEL-5 = tested on: SK-MEL-5
OVCAR-3 = tested on: OVCAR-3
A549 = tested on: A549
IGROV-1 = tested on: IGROV-1

Measured: GI50

COc1ccc(OC)c(NC(=O)C(=O)C(C(C)=O)c2nc3ccc(Cl)cc3nc2O)c1 (centres undefined)
inactive: HCC 2998 > 50 µM | A498 > 50 µM | CCRF-CEM > 5 µM | NCI-H23 > 50 µM | NCI-H460 > 50 µM | SNB-75 > 50 µM | RPMI-8226 > 50 µM | OVCAR-5 > 50 µM | M14 > 50 µM | RXF 393 > 50 µM | SNB-78 > 50 µM | SK-MEL-5 > 50 µM | OVCAR-3 > 50 µM | A549 > 50 µM | IGROV-1 > 50 µM

[N-]=[N+]=Nc1nnc(CCCCc2nnc(N=[N+]=[N-])o2)o1
inactive: HCC 2998 > 100 µM | A498 > 100 µM | CCRF-CEM > 100 µM | NCI-H23 > 100 µM | NCI-H460 > 100 µM | SNB-75 > 100 µM | OVCAR-5 > 100 µM | M14 > 100 µM | RXF 393 > 100 µM | SNB-78 > 100 µM | SK-MEL-5 > 100 µM | OVCAR-3 > 100 µM | A549 > 100 µM

CN/N=C(\C(=O)Nc1ccc(C(F)(F)F)cc1[N+](=O)[O-])C(c1cnc2ccc([N+](=O)[O-])cc2n1)[N+](=O)[O-] (centres undefined)
inactive: HCC 2998 49.5 µM | A498 16.7 µM | CCRF-CEM 9.77 µM | NCI-H23 62.7 µM | NCI-H460 33.3 µM | RPMI-8226 38.2 µM | OVCAR-5 22.9 µM | M14 > 100 µM | RXF 393 30.1 µM | SNB-78 61.7 µM | SK-MEL-5 28.1 µM | OVCAR-3 28.6 µM | A549 28 µM | IGROV-1 > 100 µM

Cc1ccc(SC(C)/C=C/NNC2=NN=C(c3ccccc3)C(c3ccccc3)N2)cc1 (centres undefined)
inactive: HCC 2998 28 µM | A498 40.4 µM | CCRF-CEM 21.5 µM | NCI-H23 48.9 µM | NCI-H460 33.1 µM | SNB-75 20.7 µM | RPMI-8226 27.9 µM | OVCAR-5 21.5 µM | M14 38 µM | SNB-78 66.7 µM | SK-MEL-5 14.6 µM | OVCAR-3 25.5 µM | A549 33.1 µM | IGROV-1 31.1 µM

COC(=O)/C(=N/NC(C)(C)C)C(C(=O)C=C(C)C)C(=O)C(=O)Nc1ccc(Cl)cc1C (centres undefined)
inactive: HCC 2998 > 100 µM | A498 > 100 µM | CCRF-CEM > 100 µM | NCI-H23 > 100 µM | NCI-H460 > 100 µM | RPMI-8226 > 100 µM | OVCAR-5 > 100 µM | M14 > 100 µM | SNB-78 > 10 µM | SK-MEL-5 > 100 µM | OVCAR-3 > 100 µM | A549 > 100 µM | IGROV-1 > 100 µM

O=C1NC(c2ccc(O)cc2)C2CCC1C2 (centres undefined)
inactive: HCC 2998 > 100 µM | A498 > 100 µM | CCRF-CEM > 100 µM | NCI-H23 > 100 µM | NCI-H460 > 100 µM | SNB-75 > 100 µM | RPMI-8226 > 100 µM | OVCAR-5 > 100 µM | M14 > 100 µM | SNB-78 > 100 µM | SK-MEL-5 > 100 µM | OVCAR-3 > 100 µM | A549 > 100 µM | IGROV-1 > 100 µM

COC(=O)c1cc(C(=O)OC)c(CC(=O)C(=O)NC2C3CC4CC(C3)CC2C4)nc1CC(=O)C(=O)NC1C2CC3CC(C2)CC1C3 (centres undefined)
inactive: HCC 2998 > 100 µM | A498 > 100 µM | CCRF-CEM > 100 µM | NCI-H23 > 100 µM | NCI-H460 > 100 µM | SNB-75 > 100 µM | RPMI-8226 > 100 µM | OVCAR-5 > 100 µM | M14 > 100 µM | RXF 393 > 100 µM | SNB-78 > 100 µM | SK-MEL-5 > 100 µM | OVCAR-3 > 100 µM | A549 > 100 µM | IGROV-1 > 100 µM

COC1(OC)CC2CCCCC2=C(C)N1S(=O)(=O)c1ccccc1 (centres undefined)
inactive: CCRF-CEM > 100 µM | NCI-H23 > 100 µM | NCI-H460 > 100 µM | SNB-75 > 100 µM | RPMI-8226 > 100 µM | OVCAR-5 > 100 µM | M14 > 100 µM | RXF 393 > 100 µM | SNB-78 > 100 µM | SK-MEL-5 > 100 µM | OVCAR-3 > 100 µM | A549 > 100 µM | IGROV-1 > 100 µM

COC(=O)/C=C(C)/C=C/C1OC(C)OCC1O (centres undefined)
inactive: HCC 2998 > 100 µM | A498 > 100 µM | CCRF-CEM > 100 µM | NCI-H23 > 100 µM | NCI-H460 > 100 µM | RPMI-8226 > 100 µM | OVCAR-5 > 100 µM | M14 > 100 µM | SNB-78 > 100 µM | SK-MEL-5 > 100 µM | OVCAR-3 > 100 µM | A549 > 100 µM | IGROV-1 > 100 µM
